Assay results as given in the supplement of paper PMC10307832.

Key:
Assay in all cases: relative viability (nuclei count vs DMSO), 5 days (fraction); higher = more cells survive
[1] = compound: COc1cc(Nc2c(C#N)cnc3cc(OCCCN4CCN(C)CC4)c(OC)cc23)c(Cl)cc1Cl [Bosutinib] + CCNC(=O)c1noc(-c2cc(C(C)C)c(O)cc2O)c1-c1ccc(CN2CCOCC2)cc1 [Luminespib] (partner 0.01 µM)
Outline: (§1)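 One day after seeding in 1536-well plates, lung cancer cell lines were dosed by pin tool. Dosing was either single-drug or a fixed anchor-drug dose plus five library-drug doses (not always all listed) in √10 steps. After 5 days, nuclei were stained in one fix-and-stain step and counted on 4× images, and relative viability is the nuclei count of treated wells over that of vehicle wells, given as the median of duplicate plates.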

[2] = compound: COc1cc(Nc2c(C#N)cnc3cc(OCCCN4CCN(C)CC4)c(OC)cc23)c(Cl)cc1Cl [Bosutinib] + COc1cc2c(Oc3ccc(NC(=O)C4(C(=O)Nc5ccc(F)cc5)CC4)cc3F)ccnc2cc1OCCCN1CCOCC1 [Foretinib] (partner 0.25 µM)
Outline: as §1

[3] = compound: COc1cc(Nc2c(C#N)cnc3cc(OCCCN4CCN(C)CC4)c(OC)cc23)c(Cl)cc1Cl [Bosutinib] + COc1cccc2cc(-c3nc([C@H]4CC[C@H](C(=O)O)CC4)n4ncnc(N)c34)[nH]c12 [OSI-027] (partner 0.5 µM)
Outline: as §1

[4] = compound: COc1cc(Nc2c(C#N)cnc3cc(OCCCN4CCN(C)CC4)c(OC)cc23)c(Cl)cc1Cl [Bosutinib] + Cc1nc(NC(=O)N2CCC[C@H]2C(N)=O)sc1-c1ccnc(C(C)(C)C(F)(F)F)c1 [Alpelisib] (partner 2 µM)
Outline: as §1

[5] = compound: COc1cc(Nc2c(C#N)cnc3cc(OCCCN4CCN(C)CC4)c(OC)cc23)c(Cl)cc1Cl [Bosutinib] + Nc1ncn([C@H]2C[C@H](O)[C@@H](CO)O2)c(=O)n1 [Decitabine] (partner 2 µM)
Outline: as §1

Cell Line LC-2-ad has a relative viability ([1]; first compound 0.01 µM) of 1.05, a relative viability ([1]; first compound 0.03162 µM) of 0.924 and a relative viability ([1]; first compound 0.1 µM) of 0.978. The relative viability ([1]; first compound 1 µM) was 1.01, the relative viability ([2]; first compound 0.01 µM) was 0.982 and the relative viability ([2]; first compound 0.03162 µM) was 0.979. It also gave a relative viability ([2]; first compound 0.1 µM) of 0.948, a relative viability ([2]; first compound 1 µM) of 0.61 and a relative viability ([3]; first compound 0.01 µM) of 0.878. For the same cell line, the relative viability ([3]; first compound 0.03162 µM) was 0.917, the relative viability ([3]; first compound 0.1 µM) was 0.806 and the relative viability ([3]; first compound 1 µM) was 0.847. It also gave a relative viability ([4]; first compound 0.01 µM) of 0.883, a relative viability ([4]; first compound 0.03162 µM) of 0.975 and a relative viability ([4]; first compound 0.1 µM) of 0.92. For the same cell line, the relative viability ([4]; first compound 1 µM) was 0.864, the relative viability ([5]; first compound 0.01 µM) was 0.797 and the relative viability ([5]; first compound 0.03162 µM) was 0.849. The relative viability ([5]; first compound 0.1 µM) was 0.875 and the relative viability ([5]; first compound 1 µM) was 0.784.

In the case of LOU-NH91, the relative viability ([1]; first compound 0.01 µM) is reported as 0.315, the relative viability ([1]; first compound 0.03162 µM) is reported as 0.36 and the relative viability ([1]; first compound 0.1 µM) is reported as 0.38. For the same cell line, the relative viability ([1]; first compound 1 µM) was 0.178, the relative viability ([2]; first compound 0.01 µM) was 0.912 and the relative viability ([2]; first compound 0.03162 µM) was 0.929. For the same cell line, the relative viability ([2]; first compound 0.1 µM) was 0.845, the relative viability ([2]; first compound 1 µM) was 0.538 and the relative viability ([3]; first compound 0.01 µM) was 0.742. The relative viability ([3]; first compound 0.03162 µM) was 0.707, the relative viability ([3]; first compound 0.1 µM) was 0.728 and the relative viability ([3]; first compound 1 µM) was 0.51. For the same cell line, the relative viability ([4]; first compound 0.01 µM) was 0.807, the relative viability ([4]; first compound 0.03162 µM) was 0.7 and the relative viability ([4]; first compound 0.1 µM) was 0.638. The relative viability ([4]; first compound 1 µM) was 0.46, the relative viability ([5]; first compound 0.01 µM) was 0.818 and the relative viability ([5]; first compound 0.03162 µM) was 0.834. For the same cell line, the relative viability ([5]; first compound 0.1 µM) was 0.765 and the relative viability ([5]; first compound 1 µM) was 0.653.

NCI-H1734 showed a relative viability ([1]; first compound 0.01 µM) of 0.172, a relative viability ([1]; first compound 0.03162 µM) of 0.181 and a relative viability ([1]; first compound 0.1 µM) of 0.217. For the same cell line, the relative viability ([1]; first compound 1 µM) was 0.196, the relative viability ([2]; first compound 0.01 µM) was 0.888 and the relative viability ([2]; first compound 0.03162 µM) was 0.837. It also gave a relative viability ([2]; first compound 0.1 µM) of 0.849, a relative viability ([2]; first compound 1 µM) of 0.719 and a relative viability ([3]; first compound 0.01 µM) of 0.584. For the same cell line, the relative viability ([3]; first compound 0.03162 µM) was 0.609, the relative viability ([3]; first compound 0.1 µM) was 0.684 and the relative viability ([3]; first compound 1 µM) was 0.538. For the same cell line, the relative viability ([4]; first compound 0.01 µM) was 0.642, the relative viability ([4]; first compound 0.03162 µM) was 0.632 and the relative viability ([4]; first compound 0.1 µM) was 0.748. For the same cell line, the relative viability ([4]; first compound 1 µM) was 0.59, the relative viability ([5]; first compound 0.01 µM) was 0.511 and the relative viability ([5]; first compound 0.03162 µM) was 0.55. For the same cell line, the relative viability ([5]; first compound 0.1 µM) was 0.483 and the relative viability ([5]; first compound 1 µM) was 0.458.

NCI-H520 showed a relative viability ([1]; first compound 0.01 µM) of 0.199, a relative viability ([1]; first compound 0.03162 µM) of 0.236 and a relative viability ([1]; first compound 0.1 µM) of 0.223. The relative viability ([1]; first compound 1 µM) was 0.214, the relative viability ([2]; first compound 0.01 µM) was 0.929 and the relative viability ([2]; first compound 0.03162 µM) was 0.857. For the same cell line, the relative viability ([2]; first compound 0.1 µM) was 0.789, the relative viability ([2]; first compound 1 µM) was 0.551 and the relative viability ([3]; first compound 0.01 µM) was 0.293. For the same cell line, the relative viability ([3]; first compound 0.03162 µM) was 0.257, the relative viability ([3]; first compound 0.1 µM) was 0.235 and the relative viability ([3]; first compound 1 µM) was 0.196. For the same cell line, the relative viability ([4]; first compound 0.01 µM) was 0.96, the relative viability ([4]; first compound 0.03162 µM) was 0.786 and the relative viability ([4]; first compound 0.1 µM) was 0.968. The relative viability ([4]; first compound 1 µM) was 0.66, the relative viability ([5]; first compound 0.01 µM) was 0.465 and the relative viability ([5]; first compound 0.03162 µM) was 0.47. The relative viability ([5]; first compound 0.1 µM) was 0.533 and the relative viability ([5]; first compound 1 µM) was 0.409.

Work on UMC-11 yielded a relative viability ([1]; first compound 0.01 µM) of 0.967, a relative viability ([1]; first compound 0.03162 µM) of 1.16 and a relative viability ([1]; first compound 0.1 µM) of 1.05. The relative viability ([1]; first compound 1 µM) was 0.806, the relative viability ([2]; first compound 0.01 µM) was 0.979 and the relative viability ([2]; first compound 0.03162 µM) was 1.07. For the same cell line, the relative viability ([2]; first compound 0.1 µM) was 1.03, the relative viability ([2]; first compound 1 µM) was 0.94 and the relative viability ([3]; first compound 0.01 µM) was 0.48. For the same cell line, the relative viability ([3]; first compound 0.03162 µM) was 0.478, the relative viability ([3]; first compound 0.1 µM) was 0.423 and the relative viability ([3]; first compound 1 µM) was 0.402. It also gave a relative viability ([4]; first compound 0.01 µM) of 1, a relative viability ([4]; first compound 0.03162 µM) of 1.04 and a relative viability ([4]; first compound 0.1 µM) of 0.934. For the same cell line, the relative viability ([4]; first compound 1 µM) was 0.847, the relative viability ([5]; first compound 0.01 µM) was 0.661 and the relative viability ([5]; first compound 0.03162 µM) was 0.555. For the same cell line, the relative viability ([5]; first compound 0.1 µM) was 0.596 and the relative viability ([5]; first compound 1 µM) was 0.535.

With NCI-H596 the relative viability ([1]; first compound 0.01 µM) was 0.935, the relative viability ([1]; first compound 0.03162 µM) was 0.938 and the relative viability ([1]; first compound 0.1 µM) was 0.959. The relative viability ([1]; first compound 1 µM) was 1.1, the relative viability ([2]; first compound 0.01 µM) was 0.745 and the relative viability ([2]; first compound 0.03162 µM) was 0.857. It also gave a relative viability ([2]; first compound 0.1 µM) of 0.721, a relative viability ([2]; first compound 1 µM) of 0.855 and a relative viability ([3]; first compound 0.01 µM) of 0.743. For the same cell line, the relative viability ([3]; first compound 0.03162 µM) was 0.738, the relative viability ([3]; first compound 0.1 µM) was 0.639 and the relative viability ([3]; first compound 1 µM) was 0.496. For the same cell line, the relative viability ([4]; first compound 0.01 µM) was 0.505, the relative viability ([4]; first compound 0.03162 µM) was 0.992 and the relative viability ([4]; first compound 0.1 µM) was 0.945. It also gave a relative viability ([4]; first compound 1 µM) of 0.348, a relative viability ([5]; first compound 0.01 µM) of 1.03 and a relative viability ([5]; first compound 0.03162 µM) of 1.07. The relative viability ([5]; first compound 0.1 µM) was 1.05 and the relative viability ([5]; first compound 1 µM) was 0.876.
